Test results published in paper PMC3274592 (Archives of Biochemistry and Biophysics, 2011).

Key:
CYP158A1 [1] = target: CYP158A1 (Streptomyces coelicolor, UniProt Q9KZF5, K90I); experiment: UV-vis difference spectral titration; assay type: binding
CYP158A1 [2] = target: CYP158A1 (Streptomyces coelicolor, UniProt Q9KZF5); experiment: UV-vis difference spectral titration; assay type: binding
CYP158A1 (Streptomyces coelicolor, UniProt Q9KZF5), sequence (Q9KZF5 whole entry): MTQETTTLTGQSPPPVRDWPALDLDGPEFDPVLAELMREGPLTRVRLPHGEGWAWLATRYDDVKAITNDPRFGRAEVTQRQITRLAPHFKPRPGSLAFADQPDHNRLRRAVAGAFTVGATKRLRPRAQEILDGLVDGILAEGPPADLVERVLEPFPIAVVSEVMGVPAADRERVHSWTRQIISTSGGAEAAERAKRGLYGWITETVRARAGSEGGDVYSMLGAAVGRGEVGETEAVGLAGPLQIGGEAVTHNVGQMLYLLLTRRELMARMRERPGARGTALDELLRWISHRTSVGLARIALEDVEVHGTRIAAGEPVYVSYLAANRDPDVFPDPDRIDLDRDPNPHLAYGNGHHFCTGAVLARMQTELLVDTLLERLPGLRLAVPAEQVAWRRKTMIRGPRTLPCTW

CYP158A1 (Streptomyces coelicolor, UniProt Q9KZF5, K90I), sequence (Q9KZF5 whole entry K90I): as the sequence (Q9KZF5 whole entry) above, with K90I counted along it

Kd (CYP158A1 [1]): 16.9 µM
Kd (CYP158A1 [2]): 10.5 µM
Compound: O=C1C(O)=CC(=O)c2c(O)cc(O)cc21 [flaviolin]
